The values that follow come from article PMC11879040, “Advancing systemic toxicity risk assessment: Evaluation of a NAM-based toolbox approach” (Toxicological Sciences, 2024).

One may read the Aqueous Solubility as the dissolved amount per volume that the medium holds.

For data set [1], the system named is dog. To be noted: ref ToxRefDB/Paul-Friedman et al. (2020)/regulatory opinions, cited from earlier work.
Data set [2] concerns the target Glucocorticoid receptor, NR3C1 (h) (Homo sapiens, UniProt P04150). Put plainly: IPP NR3C1 binding (agonist radioligand). The note with it: IPP screening at 10 uM; control dexamethasone.
For data set [3] the following is noted: at the given pH, single value or median, cited from earlier work.
The target in data set [4] is Mu-type opioid receptor, OPRM1 (h) (Homo sapiens, UniProt P35372). The note with it: control DAMGO.
The conditions of data set [5]: cited from earlier work.
Data set [6] deals with T1, Progesterone receptor, PGR (h) (Homo sapiens, UniProt P06401).
T1 sequence (P06401 1-933): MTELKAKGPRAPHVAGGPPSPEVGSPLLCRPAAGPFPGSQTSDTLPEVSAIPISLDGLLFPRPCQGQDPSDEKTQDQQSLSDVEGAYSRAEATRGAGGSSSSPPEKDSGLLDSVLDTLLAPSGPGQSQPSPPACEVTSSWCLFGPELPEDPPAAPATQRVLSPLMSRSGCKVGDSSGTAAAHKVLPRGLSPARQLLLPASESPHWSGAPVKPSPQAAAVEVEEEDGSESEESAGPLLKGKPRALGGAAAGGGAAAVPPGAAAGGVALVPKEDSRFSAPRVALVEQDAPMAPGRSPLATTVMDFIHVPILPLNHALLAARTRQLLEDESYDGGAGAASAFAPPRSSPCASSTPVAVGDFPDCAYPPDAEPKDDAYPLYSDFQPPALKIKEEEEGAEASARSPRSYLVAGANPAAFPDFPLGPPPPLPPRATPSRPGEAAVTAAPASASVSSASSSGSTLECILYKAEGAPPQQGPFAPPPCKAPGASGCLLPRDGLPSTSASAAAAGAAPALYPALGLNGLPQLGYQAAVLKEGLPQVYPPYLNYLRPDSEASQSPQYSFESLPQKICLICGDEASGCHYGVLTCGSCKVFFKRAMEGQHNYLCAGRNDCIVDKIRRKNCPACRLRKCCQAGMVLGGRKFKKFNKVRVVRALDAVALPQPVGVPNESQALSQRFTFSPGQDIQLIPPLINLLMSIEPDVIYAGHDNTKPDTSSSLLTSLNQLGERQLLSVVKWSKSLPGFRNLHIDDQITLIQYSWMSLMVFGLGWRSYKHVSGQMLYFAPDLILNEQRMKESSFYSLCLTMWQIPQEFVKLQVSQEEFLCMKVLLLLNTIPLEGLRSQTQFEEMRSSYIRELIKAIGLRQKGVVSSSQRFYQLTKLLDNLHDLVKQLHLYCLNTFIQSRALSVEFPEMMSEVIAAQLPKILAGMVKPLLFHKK
The data set can be described thus: IPP PGR coactivator recruitment (antagonist). In kind it is biochemical. To be noted: ligand progesterone.

Data set [7] deals with T1, Progesterone receptor, PGR (h). The data set can be described thus: biochemical. To be noted: agonist, progesterone for control. In kind it is biochemical.
Data set [8] deals with T2, Peroxisome proliferator-activated receptor gamma, PPARG (h) (Homo sapiens, UniProt P37231).
T2 sequence (P37231 1-505): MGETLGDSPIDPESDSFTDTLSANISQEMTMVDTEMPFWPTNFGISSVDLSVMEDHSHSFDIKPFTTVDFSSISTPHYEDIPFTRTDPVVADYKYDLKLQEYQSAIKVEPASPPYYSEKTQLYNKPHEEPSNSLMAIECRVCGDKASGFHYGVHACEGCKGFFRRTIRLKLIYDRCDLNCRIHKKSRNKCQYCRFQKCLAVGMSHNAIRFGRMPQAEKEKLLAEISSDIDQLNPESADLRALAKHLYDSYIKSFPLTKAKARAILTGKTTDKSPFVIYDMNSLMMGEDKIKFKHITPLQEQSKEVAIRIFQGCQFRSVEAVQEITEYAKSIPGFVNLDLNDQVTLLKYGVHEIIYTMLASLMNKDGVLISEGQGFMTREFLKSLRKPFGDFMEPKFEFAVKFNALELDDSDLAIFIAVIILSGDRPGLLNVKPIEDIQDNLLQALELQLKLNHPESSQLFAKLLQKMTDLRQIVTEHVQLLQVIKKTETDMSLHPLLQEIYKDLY
The data set can be described thus: IPP PPARG coactivator recruitment (antagonist). In kind it is biochemical. To be noted: 10 uM, ligand rosiglitazone.

The target of data set [9] is T3, Thyroid hormone receptor beta, THRB (h) (Homo sapiens, UniProt P10828).
T3 construct: purchased Eurofins Cerep (SafetyScreen44-based IPP panel)
The data set can be described thus: IPP THRB coactivator recruitment (agonist). To be noted: 10 uM, T3. In kind it is biochemical.

Data set [10] deals with T2, Peroxisome proliferator-activated receptor gamma, PPARG (h). Put plainly: IPP PPARG coactivator recruitment (agonist). In kind it is biochemical. The note with it: 10 uM, rosiglitazone for control.
Data set [11] concerns the target T4, Peroxisome proliferator-activated receptor alpha, PPARA (h) (Homo sapiens, UniProt Q07869).
T4 sequence (Q07869 1-468): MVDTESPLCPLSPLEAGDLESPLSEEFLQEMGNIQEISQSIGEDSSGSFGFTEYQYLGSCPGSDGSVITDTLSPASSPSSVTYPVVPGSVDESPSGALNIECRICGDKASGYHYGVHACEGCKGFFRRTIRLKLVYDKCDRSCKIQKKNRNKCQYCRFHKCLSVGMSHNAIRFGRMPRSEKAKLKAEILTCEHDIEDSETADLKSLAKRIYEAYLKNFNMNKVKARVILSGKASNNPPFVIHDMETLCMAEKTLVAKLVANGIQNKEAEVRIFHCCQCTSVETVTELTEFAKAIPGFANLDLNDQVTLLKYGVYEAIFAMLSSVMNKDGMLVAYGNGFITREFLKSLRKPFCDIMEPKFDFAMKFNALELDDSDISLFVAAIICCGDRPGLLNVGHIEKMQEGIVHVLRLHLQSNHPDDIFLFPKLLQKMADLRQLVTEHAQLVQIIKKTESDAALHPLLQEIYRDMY
Put plainly: IPP PPARA coactivator recruitment (antagonist). In kind it is biochemical. To be noted: 10 uM; antagonist; ligand GW 7647.

[12] abbreviates: human, Oral 100 mg, Tablet, 27 healty male, Fasted, validation, ref Shank, R.P. et al. (2005) Epilepsy Research 63:103-112.
Where [13] appears, read: human, Oral 200 mg, Tablet, 25 healty male, Fasted, calibration, ref Shank, R.P. et al. (2005) Epilepsy Research 63:103-112.
Where [14] appears, read: human, Oral 400 mg, Tablet, 26 healty male, Fasted, validation, ref Shank, R.P. et al. (2005) Epilepsy Research 63:103-112.
The mark [15] stands for this setting: Oral 500 mg tablet, Preparation A: non-shellaced core, sugar coated, fasted, 5 healthy male, calibration, ref Hart 1975.
[16] abbreviates: Oral 500 mg tablet, Preparation B: shellaced core, sugar coated, fasted, 5 healthy male, calibration, ref Hart 1975.
The mark [17] stands for this setting: Oral 500 mg tablet, Preparation C: film-coated, fasted, 5 healthy male, calibration, ref Hart 1975.
Setting [18] is: human, Oral 500 mg repeat every 12 h, 2 x 250 mg tablets (Terramycin), 4 healthy male, Fasted, measured data for day 1 and day 7, validation, ref GREEN, BROWN & CALVERT, European Journal of Clinical Pharmacology (1979) 10:245-250, cited in EPA (1987).
The mark [19] stands for this setting: human, Oral 500 mg, Preparation D: tablet, film-coated (Oxytetracycline hydrochloride), 5 healthy male, Fasted, calibration, ref HART, Br. J. clin. Pharmac. (1975), 2, 277-280.
The mark [20] stands for this setting: human, Oral 500 mg, Preparation E: Capsule (Oxytetracycline hydrochloride), 5 healthy male, Fasted, calibration, ref HART, Br. J. clin. Pharmac. (1975), 2, 277-280.

Read-outs that look alike come from different tables or passages of the source.

Mu-type opioid receptor, OPRM1 (h), sequence (P35372 whole entry): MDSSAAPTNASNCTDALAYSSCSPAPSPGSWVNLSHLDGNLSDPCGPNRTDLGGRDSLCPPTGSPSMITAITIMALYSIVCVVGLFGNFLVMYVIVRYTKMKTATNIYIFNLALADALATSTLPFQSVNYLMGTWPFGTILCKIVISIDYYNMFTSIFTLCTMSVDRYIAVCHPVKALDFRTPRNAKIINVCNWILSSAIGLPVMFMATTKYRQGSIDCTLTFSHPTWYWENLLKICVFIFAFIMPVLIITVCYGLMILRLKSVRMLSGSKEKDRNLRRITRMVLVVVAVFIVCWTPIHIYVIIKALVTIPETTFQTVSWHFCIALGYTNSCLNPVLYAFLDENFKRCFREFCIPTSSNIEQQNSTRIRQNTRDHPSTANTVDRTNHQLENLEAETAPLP
T3 sequence (P10828 whole entry): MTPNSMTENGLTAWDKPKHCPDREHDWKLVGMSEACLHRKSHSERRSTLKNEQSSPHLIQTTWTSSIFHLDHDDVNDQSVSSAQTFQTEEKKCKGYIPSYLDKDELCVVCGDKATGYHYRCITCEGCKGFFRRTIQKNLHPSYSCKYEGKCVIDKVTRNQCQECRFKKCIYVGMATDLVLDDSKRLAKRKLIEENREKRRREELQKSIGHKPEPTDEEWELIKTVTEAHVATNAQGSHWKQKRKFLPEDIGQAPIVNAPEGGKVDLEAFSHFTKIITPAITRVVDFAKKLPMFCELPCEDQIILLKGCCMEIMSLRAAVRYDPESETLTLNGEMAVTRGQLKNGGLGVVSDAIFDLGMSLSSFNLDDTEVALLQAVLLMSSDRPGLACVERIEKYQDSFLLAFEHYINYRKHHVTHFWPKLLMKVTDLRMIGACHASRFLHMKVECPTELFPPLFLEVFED
Glucocorticoid receptor, NR3C1 (h), sequence (P04150 whole entry): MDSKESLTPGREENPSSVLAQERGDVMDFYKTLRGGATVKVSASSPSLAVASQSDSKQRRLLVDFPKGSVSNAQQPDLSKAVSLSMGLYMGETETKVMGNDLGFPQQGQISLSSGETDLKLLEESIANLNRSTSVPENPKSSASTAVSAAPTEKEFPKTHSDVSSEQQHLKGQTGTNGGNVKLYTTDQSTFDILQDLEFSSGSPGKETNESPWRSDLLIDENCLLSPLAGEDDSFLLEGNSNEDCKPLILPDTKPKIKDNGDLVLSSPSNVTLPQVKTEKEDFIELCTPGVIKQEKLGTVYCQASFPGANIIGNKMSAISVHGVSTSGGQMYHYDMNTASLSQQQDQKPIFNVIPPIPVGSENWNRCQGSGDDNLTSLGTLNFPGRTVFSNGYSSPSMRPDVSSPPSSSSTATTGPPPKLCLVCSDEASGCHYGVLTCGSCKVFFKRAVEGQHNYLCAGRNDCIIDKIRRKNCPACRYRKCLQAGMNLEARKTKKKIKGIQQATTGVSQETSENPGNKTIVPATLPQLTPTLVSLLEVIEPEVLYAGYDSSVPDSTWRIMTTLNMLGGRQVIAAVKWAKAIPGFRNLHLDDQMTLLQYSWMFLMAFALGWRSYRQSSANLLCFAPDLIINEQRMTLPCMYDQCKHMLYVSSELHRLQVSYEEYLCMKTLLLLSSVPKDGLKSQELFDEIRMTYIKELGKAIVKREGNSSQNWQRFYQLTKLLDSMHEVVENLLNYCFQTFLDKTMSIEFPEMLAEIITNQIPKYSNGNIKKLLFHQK

Consider `CCOP(=S)(OCC)Oc1nc(Cl)c(Cl)cc1Cl` [Chlorpyrifos, O,O-Diethyl O-(3,5,6-trichloropyridin-2-yl) phosphorothioate], for which the “PoD (NOAEL)” value in data set [1] (2 years, inhibition of plasma and erythrocyte ChE) is given as 0.01 mg/kg bw/day. Besides, the Specific binding in data set [2] came to 29.4%; in [4] (IPP screening at 10 uM), 29.9%. The “Aqueous Solubility” value in data set [3] (PBK level L2, ref [1],[4],[5],[10],[11],[17],[26]) is 1.26 µg/mL; in [3] (PBK level L3, ref [4],[5],[10],[11]), 1.26 µg/mL.
As for `CC(C)(C)c1ccc(CCOc2ncnc3ccccc23)cc1` [Fenazaquin, 4-[2-(4-tert-Butylphenyl)ethoxy]quinazoline], the Specific binding in data set [4] (IPP screening at 10 uM) was 16.1%.
With `CC1(C)O[C@@H]2[C@@H](CO[C@@]3(COS(N)(=O)=O)OC(C)(C)O[C@@H]23)O1` [Topiramate, [(3aS,5aR,8aR,8bS)-2,2,7,7-Tetramethyltetrahydro-2H,3aH,7H-bis[1,3]dioxolo[4,5-b:4',5'-d]pyran-3a-yl]methyl sulfamate (non-preferred name)], the “Reported AUC0-t” value in data set [5] (setting [12]) was 50540 ng·h/mL; in [5] (setting [13]), 145000 ng·h/mL; in data set [5] (setting [14]), 229000 ng·h/mL. The Reported cmax in data set [5] (setting [12]) was 1.3281 µg/mL; in [5] (setting [13]), 3.1578 µg/mL; in data set [5] (setting [14]) it was 6.5205 µg/mL. Besides, the values for the Reported tmax in [5] (setting [12]), in data set [5] (setting [13]) and in data set [5] (setting [14]) were 4 h, 3 h and 2 h, respectively. Besides, in data set [5] (ref not given), the plasma half-life entry is reported as “over 20 h”. Moreover, the “IPP screening %, Coactivator recruitment” value in [6] (100 uM) was found to be 2.2%; in data set [7] (100 uM), 0.5%. In data set [4] (IPP screening at 100 uM), the Specific binding came to 0.9%.
Regarding “(4S,4aR,5S,5aR,6S,12aS)-4-(Dimethylamino)-3,5,6,10,12,12a-hexahydroxy-6-methyl-1,11-dioxo-1,4,4a,5,5a,6,11,12a-octahydrotetracene-2-carboxamide--hydrogen chloride (1/1) [Oxytetracycline hydrochloride]”, the “IPP screening %, Coactivator recruitment” value in data set [8] is given as 31.2%; in [9], -3.0%; in data set [10] it was -0.1%; in data set [11], 42.3%. The “Reported AUC0-t” value in data set [5] (setting [15]) was 5731 ng·h/mL; in data set [5] (setting [16]) it was 4455 ng·h/mL; in [5] (setting [17]), 7198 ng·h/mL; in data set [5] (setting [18]), 79420 ng·h/mL; in [5] (setting [19]), 8279 ng·h/mL; in [5] (setting [20]), 7800 ng·h/mL. In addition, the Reported cmax in data set [5] (setting [15]) is 1.2 µg/mL; in [5] (setting [16]) it was 0.88 µg/mL; in data set [5] (setting [17]), 1.43 µg/mL; in [5] (setting [18]) it was 2.25 µg/mL; in data set [5] (setting [19]), 1.51 µg/mL; in data set [5] (setting [20]), 1.45 µg/mL. The Reported tmax in data set [5] (setting [15]) is 2 h; in data set [5] (setting [16]), 3 h; in data set [5] (setting [17]) it was 3 h; in [5] (setting [18]), 74 h; in data set [5] (setting [19]), 2 h; in data set [5] (setting [20]), 3 h. Also, the “PoD (NOAEL)” value in data set [1] (12 months (dog), 24 months (rat)) is 50 mg/kg bw/day. Moreover, the Specific binding in [4] (IPP screening at 10 uM) is listed as 3.3%.
With “mixture of 2- and 3-tert-butyl-4-methoxyphenol [Butylated Hydroxyanisole]”, the “IPP screening %, Coactivator recruitment” value is listed as 1.4% in data set [8]; 1.0% in data set [9]; -0.1% in data set [10]; 4.4% in data set [11]; 4.0% in data set [6] (10 uM); 0.1% in data set [7] (10 uM). The Specific binding is recorded as -0.5% in [2] and 7.1% in data set [4] (IPP screening at 10 uM).
